Like-named read-outs stand apart in the source and are kept apart here.
Assays:
Type in all cases: in vivo
[1] = test system: Culex pipiens pallens; experiment: Test Example 5: larvae in treated water, Culex pipiens pallens; conditions: 24 h, read-out: rate of dead pests
Protocol: The formulation obtained according to Formulation Example 5 using the compound of the present invention (1), (2), (3), (4), (5), (6), (7), (8), (9), (10), (11), (12), (13), (14), (15), (16), (17), (18), (19), (20), (21), (22), (23), (25), (27), (28), (29), […], (31), (32), (33), (34), (35), (36), (37), (38), (39), (41), (44), (45), (46), (47) and (48) respectively, was diluted with water so that the active ingredient concentration came to 500 ppm to prepare a pesticidal solution for test.
0.7 ml of above pesticidal solution for test was added to 100 ml of ion exchanged water (active ingredient concentration: 3.5 ppm). Twenty last-instar larvae of Culex pipiens pallens were set free in the solution. After one day, the number of surviving and dead Culex pipiens pallens was examined and the rate of dead pests was calculated.

[2] = test system: Blattella germanica; experiment: Test Example 4: treated filter paper with sucrose bait, Blattella germanica; conditions: 144 h; 500 ppm, 0.7 ml on filter paper; two male Blattella germanica imagoes; after 6 days; read-out: rate of dead pests
Protocol: (§1) The formulation obtained according to Formulation Example 5 using the compound of the present invention (2), (3), (4), (6), (7), (8), (9), (11), (12), (13), (15), (16), (18), (19), (20), (21), (22), (27), (28), (29), (30), (31), (32), (33), (34), (35), (36), (37), (38), (43) and (43) respectively, was diluted with water so that the active ingredient concentration came to 500 ppm to prepare a pesticidal solution for test.
(§2) On the bottom of a polyethylene cup having a diameter of 5.5 cm, a filter paper having the same diameter was laid, and 0.7 ml of the above pesticidal solution for test was added dropwise on the filter paper, followed by putting 30 mg of sucrose on it uniformly as a bait. Two male Blattella germanica imagoes were set free in the polyethylene cup and covered it with a lid. After 6 days, the number of surviving and dead Blattella germanica was examined and the rate of dead pests was calculated.

[3] = test system: Musca domestica; experiment: Test Example 3: treated filter paper with sucrose bait, Musca domestica; conditions: 500 ppm, 0.7 ml on filter paper; ten female Musca domestica imagoes; after 24 hours; read-out: rate of dead pests
Protocol: as §1, with “(8),” for “(8), (9),”, “(16),” for “(16), (18),”, “(22),” for “(22), (27),”, “(34),” for “(34), (35),”, “(38)” for “(38), (43)”, “(39)” for “(43)”
as §2, with “Ten female Musca domestica” for “Two male Blattella germanica”, “24 hours,” for “6 days,”, “Musca domestica” for “Blattella germanica”

[4] = active ingredient concentration 3.5 ppm in water, twenty last-instar larvae of Culex pipiens pallens, after one day

| SMILES | pest or weed control at 3.5 ppm [1, 4] | pest or weed control at 500 ppm [2] | pest or weed control at 500 ppm [3] | pest or weed control at 3.5 ppm ([1]; Culex pipiens) |
| --- | --- | --- | --- | --- |
| C=CCC(C#N)(C#N)Cn1ccc(C(C)(C)C)n1 [compound of the present invention (4), allyl [(3-t-butyl-1H-pyrazole-1-yl)methyl]malononitrile] | ≥ 95% | 100% | ≥ 90% |  |
| N#Cc1cn(CC(C#N)(C#N)CCC(F)(F)F)c2ccccc12 [compound of the present invention (39), [{3-cyano-1H-indole-1-yl}methyl] (3,3,3-trifluoropropyl) malononitrile] | ≥ 95% |  | ≥ 90% |  |
| C=CCC(C#N)(C#N)Cn1ccc(C(F)(F)F)n1 [compound of the present invention (7), allyl {[3-(trifluoromethyl)-1H-pyrazole-1-yl]methyl}malononitrile] | ≥ 95% | 100% | ≥ 90% |  |
| N#CC(C#N)(CCC(F)(F)F)Cn1cnc(C(F)(F)F)c1 [compound of the present invention (38), {[4-(trifluoromethyl)-1H-imidazole-1-yl]methyl}(3,3,3-trifluoropropyl) malononitrile] | ≥ 95% | 100% | ≥ 90% |  |
| CC(C)(C)c1ncn(CC(C#N)(C#N)CCC(F)(F)F)n1 [compound of the present invention (29), [(3-t-butyl-1H-1,2,4-triazole-1-yl)methyl](3,3,3-trifluoropropyl) malononitrile] | ≥ 95% | 100% | ≥ 90% |  |
| Cc1cnn(CC(C#N)(C#N)CCC(F)(F)F)c1 [compound of the present invention (18)] | ≥ 95% | 100% |  |  |
| N#CC(C#N)(CCC(F)(F)F)Cn1cc(Br)cn1 [compound of the present invention (21), [(4-bromo-1H-pyrazole-1-yl)methyl](3,3,3-trifluoropropyl) malononitrile] | ≥ 95% | 100% | ≥ 90% |  |
| N#CC(C#N)(CCC(F)(F)F)Cn1cccn1 [compound of the present invention (1), (1H-pyrazole-1-yl methyl) (3,3,3-trifluoropropyl) malononitrile] | ≥ 95% |  |  |  |
| N#CC(C#N)(CCC(F)(F)F)Cn1ccc(C(F)(F)C(F)(F)F)n1 [compound of the present invention (36), {[3-(pentafluoroethyl)-1H-pyrazole-1-yl]methyl}(3,3,3-trifluoropropyl)malononitrile] | ≥ 95% | 100% | ≥ 90% |  |
| C=CCC(C#N)(C#N)Cn1cnc(C(F)(F)C(F)(F)F)n1 [compound of the present invention (35), allyl {[3-(pentafluoroethyl)-1H-1,2,4-triazole 1-yl]methyl}malononitrile] | ≥ 95% | 100% |  |  |
| C=CCC(C#N)(C#N)Cn1cc(Br)c(C(C)(C)C)n1 [compound of the present invention (14), allyl [(4-bromo-3-t-butyl-1H-pyrazole-1-yl)methyl]malononitrile] | ≥ 95% |  |  |  |
| N#Cc1ccn(CC(C#N)(C#N)CCC(F)(F)F)n1 [compound of the present invention (9), [(3-cyano-1H-pyrazole-1-yl)methyl](3,3,3-trifluoropropyl) malononitrile] | ≥ 95% | 100% |  |  |
| N#CC(C#N)(CCC(F)(F)F)Cn1cncn1 [compound of the present invention (27), [(1H-1,2,4-triazole-1-yl)methyl](3,3,3-trifluoropropyl) malononitrile] | ≥ 95% | 100% |  |  |
| N#Cc1cn(CC(C#N)(C#N)CCC(F)(F)F)cc1C(F)(F)F [compound of the present invention (46), [(3-cyano-4-trifluoromethyl-1H-pyrole-1-yl)methyl](3,3,3-trifluoropropyl) malononitrile] | ≥ 95% |  |  |  |
| N#CC(C#N)(CCC(F)(F)F)Cn1cc(C(=O)C(F)(F)F)c2ccccc21 [compound of the present invention (41), [{3-(trifluoroacetyl)-1H-indole-1-yl}methyl](3,3,3-trifluoropropyl) malononitrile] |  |  |  | ≥ 95% |
| CCOC(=O)c1cn(CC(C#N)(C#N)CCC(F)(F)F)nc1C(F)(F)F [compound of the present invention (25), {[4-ethoxycarbonyl-3-(trifluoromethyl)-pyrazole-1H-yl]methyl}(3,3,3-trifluoropropyl) malononitrile] | ≥ 95% |  |  |  |
| N#Cc1ccn(CC(C#N)(C#N)CCC(F)(F)F)c1 [compound of the present invention (48), [(3-cyano-1H-pyrole-1-yl)methyl] (3,3,3-trifluoropropyl) malononitrile] | ≥ 95% |  |  |  |
| CCOC(=O)c1cn(CC(C#N)(C#N)CCC(F)(F)F)cc1C(F)(F)F [compound of the present invention (47), [(3-ethoxycarbonyl-4-trifluoromethyl-1H-pyrole-1-yl)methyl](3,3,3-trifluoropropyl)malononitrile] | ≥ 95% |  |  |  |
| N#CC(C#N)(CCC(F)(F)F)Cn1ccc(-c2ccccc2)n1 [compound of the present invention (10), [(3-phenyl-1H-pyrazole-1-yl)methyl](3,3,3-trifluoropropyl)malononitrile] | ≥ 95% |  |  |  |
| CC1(C)CCc2cn(CC(C#N)(C#N)CCC(F)(F)F)nc21 [compound of the present invention (5), [(6,6-dimethyl-5,6-dihydro-cyclopenta[c]pyrazole-2(4H)-yl)methyl](3,3,3-trifluoropropyl) malononitrile] | ≥ 95% |  |  |  |
| N#CC(C#N)(CCC(F)(F)F)Cn1cc(SC(F)(Cl)Cl)cn1 [compound of the present invention (43), [(4-{(dichlorofluoromethyl)thio}-1H-pyrazole-1-yl)methyl](3,3,3-trifluoropropyl)malononitrile] |  | 100% |  |  |
| CCC(C)(C)c1ncn(CC(C#N)(C#N)CCC(F)(F)F)n1 [compound of the present invention (30), {[3-(1,1-dimethylpropyl)-1H-1,2,4-triazole-1-yl]methyl}(3,3,3-trifluoropropyl) malononitrile] |  | 100% | ≥ 90% |  |
| Cc1cc(C)n(CC(C#N)(C#N)CCC(F)(F)F)n1 [compound of the present invention (17)] | ≥ 95% |  |  |  |
| COC(=O)c1cnn(CC(C#N)(C#N)CCC(F)(F)F)c1 [compound of the present invention (23), [{4-(methoxycarbonyl)-1H-pyrazole-1-yl}methyl](3,3,3-trifluoropropyl) malononitrile] | ≥ 95% |  |  |  |
| N#CC(C#N)(CCC(F)(F)F)Cn1cc(SC(F)(Cl)Cl)c2ccccc21 [compound of the present invention (44), [(3-{[dichlorofluoromethyl]thio}-1H-indole-1-yl)methyl](3,3,3-trifluoropropyl) malononitrile] | ≥ 95% |  |  |  |

— US7541374B2, “Malononitrile compounds and use thereof” (Sumitomo Chemical Company, Limited, priority 2004, dated 2009)
